US20250144083A1, “METHODS AND COMPOSITIONS FOR TREATING CANCER IN TAXANE-RESISTANT PATIENTS” (MODRA PHARMACEUTICALS B.V., priority 2022, published 2025)
pIC50: −log10 of the molar value. Entries after “also recorded” stand apart in the source; their conditions may differ. Like-named read-outs stand apart in the source and are kept apart here.

Tests used:
Assay type in all cases: cell-based
[1] = tested on: DU-145 prostate cancer cells; test: 3D clonogenic assay, parental DU-145; conditions: for pIC50: Homo sapiens, read-out: IC50 value of cabazitaxel
Method: (§1) For the single agent efficacy experiment, a master stock solution of cabazitaxel was prepared by dissolving compound powder in DMSO at a concentration of 10 mM. From this a working stock solution of 0.1 mM (330-fold the highest test concentration) was prepared. Small aliquots of this solution were stored at −20° C. On each day of an experiment, a frozen aliquot of the working stock solution was thawed and stored at room temperature prior to and during treatment. First, serial half-log dilutions of the working stock solution were prepared in DMSO. These dilutions were then diluted 1:22 into cell culture medium in an intermediate dilution plate. Finally, 10 μl taken from the intermediate dilution plate were transferred to 140 μl/well of the final assay plate. Thus, the DMSO working stock was diluted 1:330, and the DMSO concentration in the assay was 0.3% v/v.
(§2) For combination experiments, working stock solutions of docetaxel, ritonavir, elacridar, and cabazitaxel were prepared in DMSO at concentrations of 660-fold the highest test concentration used. Small aliquots of this stock solution were stored at −20° C. On each day of an experiment, a frozen aliquot of the working stock solutions was thawed and stored at room temperature prior to and during treatment. First, 1:2 dilutions of 660-fold concentrated working stocks were done in DMSO (in case of monotherapy controls), or equal amounts of the compound working stocks were mixed (in case of drug combinations). Then, different dilutions of these 330-fold concentrated solutions were done in DMSO to give a 8*2 matrix combination layout. The DMSO dilutions were further diluted 1:22 into cell culture medium (IMDM, supplemented with 20% (v/v) fetal calf serum, 50 μg/ml gentamicin) in an intermediate dilution plate. Finally, 10 μl taken from the intermediate dilution plate were transferred to 140 μl of cells and medium per well of the final assay plate. Thus, the DMSO dilutions used for the mono- and the combination-treatment were diluted 1:330, and the DMSO concentration in the assay was 0.3% v/v.
(§3) DU-145 DOC10 was generated from DU-145 and 22Rv1 DOC8 was generated from 22Rv1. 22Rv1 was obtained from American Type Culture Collection (ATCC, Rockville, MD, USA), whereas DU-145 was obtained from National Cancer Institute (NCI, Bethesda, MD, USA).
(§4) Tumour cell lines were grown at 37° C. in a humidified atmosphere with 5% CO2 in RPMI 1640 medium (Biochrom) supplemented with 10% (v/v) fetal calf serum and 50 μg/ml gentamicin. Docetaxel resistant sublines were cultured in the presence of 8 nM (22Rv1) or 10 nM docetaxel (DU-145). The cells were routinely passaged once or twice weekly and maintained in culture for up to 20 passages. For the assay, cells were harvested using TrypLE and the percentage of viable cells was determined by the CASY TT cell counter (OMNI Life Science).
(§5) The clonogenic assay was carried out in a 96 well plate format using ultra low attachment plates. For each test, cells were prepared and assay plates were prepared as follows: each test well contained a layer of semi-solid medium with tumour cells (50 μl), and a second layer of medium supernatant with or without test compound (100 μl). The cell layer consisted of 2·10^3 to 3·10^3 tumour cells per well, which were seeded in 50 μl/well cell culture medium (IMDM, supplemented with 20% (v/v) fetal calf serum, 50 μg/ml gentamicin, and 0.4% (w/v) agar). After 24 h, the soft-agar layer was covered with 90 μl of the same culture medium without agar, and 10 μl of control medium or test compound after serial dilution in DMSO and transfer in cell culture medium were added, and left on the cells for the duration of the experiment (continuous exposure, 100 μl drug overlay). Every plate included six untreated control wells and drug-treated groups. Duplicate values were obtained by testing single values per condition on one plate. […]

[2] = tested on: 22Rv1 DOC8 prostate cancer cells; test: 3D clonogenic assay, docetaxel-resistant 22Rv1 DOC8; conditions: for pIC50: Homo sapiens, read-out: IC50 value of cabazitaxel
Method: as §1, §2, §3, §4, §5

[3] = tested on: 22Rv1 prostate cancer cells; test: 3D clonogenic assay, parental 22Rv1
Method: as §1
as §2, with “Finally, 10 μl taken from the intermediate dilution plate were transferred to 140 μl of cells and medium per well of the final assay plate. Thus, the DMSO dilutions used for the mono- and the combination-treatment were diluted 1:330, and the DMSO concentration in the assay was 0.3% v/v.” left out
Tumour cell lines were grown at 37° C. in a humidified atmosphere with 5% CO2 in RPMI 1640 medium (Biochrom) supplemented with 10% (v/v) fetal calf serum and 50 μg/ml gentamicin. […] For the assay, cells were harvested using TrypLE and the percentage of viable cells was determined by the CASY TT cell counter (OMNI Life Science). […]

[4] = tested on: DU-145 DOC10 prostate cancer cells; test: 3D clonogenic assay, docetaxel-resistant DU-145 DOC10; conditions: for Relative Resistance to cabazitaxel: compared to parental DU-145 cells without ritonavir; for pIC50: Homo sapiens, read-out: IC50 value of cabazitaxel
Method: as §1, §2, §3, §4, §5

CO[C@H]1C(=O)[C@]2(C)[C@@H](OC)C[C@H]3OC[C@@]3(OC(C)=O)[C@H]2[C@H](OC(=O)c2ccccc2)[C@]2(O)C[C@H](OC(=O)[C@H](O)[C@@H](NC(=O)OC(C)(C)C)c3ccccc3)C(C)=C1C2(C)C [cabazitaxel]
tumour cell growth inhibition, monotherapy ([1]; DU-145): inhibited tumour cell growth in a concentration dependent manner | pIC50 ([1]; DU-145, DU145, 10 μM ritonavir): 9.52 | pIC50 ([1]; DU-145, DU145, without ritonavir): 9.22 | tumour cell growth inhibition, monotherapy ([2]; 22Rv1 DOC8): inhibited tumour cell growth in a concentration dependent manner | Relative Resistance to cabazitaxel ([2]; 22Rv1 DOC8 without ritonavir, compared to parental 22Rv1 cells without ritonavir): 14 | pIC50 ([2]; 22Rv1, 22Rv1 DOC8, 10 μM ritonavir): 8.28 | pIC50 ([2]; 22Rv1, 22Rv1 DOC8, 32 μM ritonavir): 9.15 | pIC50 ([2]; 22Rv1, 22Rv1 DOC8, without ritonavir): 8.02 | fold higher relative IC50 value of cabazitaxel, monotherapy ([2]; printed: for 22Rv1 compared to 22Rv1): 14.5 fold | tumour cell growth inhibition, monotherapy ([3]; 22Rv1): inhibited tumour cell growth in a concentration dependent manner | pIC50 ([3]; Homo sapiens, 22Rv1, without ritonavir, read-out: IC50 value of cabazitaxel): 9.15 | Relative Resistance to cabazitaxel ([4]; DU145 DOC10, 10 μM ritonavir): 1 | Relative Resistance to cabazitaxel ([4]; DU145 DOC10 without ritonavir): 2.5 | tumour cell growth inhibition, monotherapy ([4]; DU-145 DOC10): inhibited tumour cell growth in a concentration dependent manner | pIC50 ([4]; DU-145, DU145 DOC10, 10 μM ritonavir): 9.22 | pIC50 ([4]; DU-145, DU145 DOC10, without ritonavir): 8.82 | shift of the IC50 value of cabazitaxel, monotherapy ([4]; printed: DU-145 DOC8 vs. DU-145): 2.7 fold

COc1cc2c(cc1OC)CN(CCc1ccc(NC(=O)c3cccc4c(=O)c5cccc(OC)c5[nH]c34)cc1)CC2 [elacridar]
reversal of docetaxel resistance ([2]; 22Rv1 DOC8, by elacridar): reverses docetaxel resistance | reversal of docetaxel resistance ([4]; DU-145 DOC10, by elacridar): reverses docetaxel resistance

CC(C)c1nc(CN(C)C(=O)N[C@H](C(=O)N[C@@H](Cc2ccccc2)C[C@H](O)[C@H](Cc2ccccc2)NC(=O)OCc2cncs2)C(C)C)cs1 [ritonavir]
ritonavir concentration that inhibits growth ([1]; DU145, ritonavir alone): ≥ 10 µM | tumour colony formation ([2]; 100 μM ritonavir, cell line not given): inhibited tumour colony formation completely | reversal of cabazitaxel resistance ([2]; 22Rv1 DOC8, by ritonavir): completely reverted; also recorded: reverses cabazitaxel resistance | reversal of docetaxel resistance ([2]; 22Rv1 DOC8, by ritonavir): reverses docetaxel resistance | reversal of cabazitaxel resistance ([4]; DU145 DOC10, by ritonavir): reverses cabazitaxel resistance | ritonavir concentration that inhibits growth ([4]; DU145 DOC10, ritonavir alone): ≥ 10 µM | reversal of docetaxel resistance ([4]; DU-145 DOC10, by ritonavir): reverses docetaxel resistance
